Test results taken from patent US20120208781A1, “AMINOGLYCOSIDE DOSING REGIMENS” (Achaogen, Inc., priority 2009, published 2012).
In brackets after ≈: the same amount, converted by molar mass. Entries after “also recorded” stand apart in the source; their conditions may differ. Like-named read-outs stand apart in the source and are kept apart here.

Tests used:
[1] = First-in-human phase 1 study: urine levels of Compound 1; type: in vivo; details: Cohort 4 (15 mg/kg)
Protocol: Pooled urine samples for PK analysis were obtained with the single dose and first and last multiple-dose.
The levels of Compound 1 present in the urine of Cohort 4 patients during the 24 hours following administration of the third multi-dose was also examined. […] Perhaps of even greater significance, the concentration of Compound 1 achieved in the urine was at least 1 mg/ml immediately following administration, and remained over 0.1 mg/ml for 12 hours.

[2] = GLP 14-day repeat-dose safety study in dog; type: in vivo
Source text: The guidance states that the MRSD must be derived from the no observable adverse effect level (NOAEL) obtained in Good Laboratory Practice (GLP) nonclinical animal safety studies. […] Estimation of the human equivalent dose (HED) at the NOAEL is based on both a surface area conversion factor (SACF) and the data from these studies.

hearing function = experiment: 28-day guinea pig ototoxicity study of Compound 1: ABR and observations
Protocol: Additionally, four groups of four male and four female animals were utilized for toxicokinetic (TK) sampling and received the control or test article in the same manner as the main study groups at respective dose levels of 0 (Vehicle Control), 8, 30, or 80 mg/kg.
Physical examinations were conducted pretest on all animals and prior to study termination for main study animals. […] Blood samples for determination of the plasma concentrations of the test article were collected from TK animals at designated time points on Day 1 and Day 14. After blood collection, the TK animals were euthanized and the carcasses were discarded.

[3] = Pharmacokinetics of Compound 1 after single bolus IV injection in rats; type: in vivo, Sprague Dawley rats; details: for half-life / AUC(0-inf) / C0 / clearance / MRT inf / Vd: Sprague Dawley, rat, plasma, 10 mg/kg
Protocol: Male CD-1 mice, Sprague Dawley rats, and beagle dogs were administered Compound 1 intravenously. Compound 1 was preformulated as a sterile isotonic solution of 10 mg/mL in PBS. Specifically, male CD-1 mice were administered a single bolus IV injection of the Compound at 10 mg/kg, via a bolus IV injection into the tail vein. Two blood samples per mouse were collected by retro-orbital puncture into tubes containing the anticoagulant K2EDTA prior to dosing and at 0.033, 0.083, 0.25, 0.5, 1 and 24 hours. Rats were administered Compound 1 at 10 mg/kg via a bolus IV injection into the tail vein. Twelve blood samples per rat were collected via a jugular vein cannula into tubes containing the anticoagulant K2EDTA at various timepoints (i.e., 0.033, 0.083, 0.25, 0.5, 1, 2, 4, 6, 8, 10, 12, and 24 hours). Male beagle dogs were administered Compound 1 at 10 mg/kg through a temporary percutaneous catheter placed in a peripheral vein. Whole blood samples (0.5 mL) were collected from each dog prior to dosing and at 0.033, 0.083, 0.25, 0.5, 1, 2, 4, 6, 8, and 24 hours via direct venipuncture of a jugular or cephalic vein into tubes containing the anticoagulant K2EDTA. A sparse sampling method was employed to conserve animals and provide the best data possible from fewer mice. Samples were centrifuged, and plasma was collected and transferred into a new tube and frozen at −80° C. until they were analyzed.
Blood, urine, and kidney samples collected over 24 hours were analyzed for Compound 1 levels using LC-MS/MS. Method performance was acceptable in the concentration ranges necessary to determine plasma levels. Compound 1 plasma concentrations were determined by comparing Compound 1 concentration in the sample to a standard curve derived from LC-MS/MS measurements of the analyte. The standard curve fit was linear with a 1/x^2 weighting.
Bioanalytical data analyses were carried out using Analyst software (version 1.4.1, Applied Biosystems, Toronto, ON, Canada). […] PK parameters were determined by noncompartmental analysis using WinNonLin. Plasma protein binding was determined using equilibrium dialysis. In vitro stability was determined using commercially available plasma, microsomes and hepatocytes.

P. aeruginosa (PSA) = experiment: MIC, CLSI broth microdilution, worldwide isolates: P. aeruginosa; type: cell-based
Source text: In the first study, a total of 235 isolates were collected from medical centers worldwide and tested for susceptibility to Compound 1 and comparator agents by CLSI broth microdilution methods. […] Non-ENT GN pathogens included WT P. aeruginosa (PSA) and Acinetobacter spp. (ACB), and carbapenem (CARB)-R strains, including those with MBL and OXA enzymes, SA and coagulase-negative staphylococci (CoNS) included oxacillin-susceptible (MSSA/MS-CoNS) and —R (MRSA/MR-CoNS) strains.
Minimum inhibitory concentrations (MIC) were determined by reference Clinical and Laboratory Standards Institute (CLSI) broth microdilution methods per M7-A7 [2006]. Briefly, serial two-fold dilutions of Compound 1 and comparator AGs (together, “the test compounds”) were prepared at 2× concentration in appropriate diluent. The dilutions were mixed in 96-well assay plates with bacterial inoculum. Bacteria were suspended in sterile saline and added to each assay plate to obtain a final concentration of 5.5×10^5 CFU/mL. The plates were incubated at 35° C. for 20 hours in ambient air. […] After incubation, assay plates were read using a microtiter plate reader at 600 nm.

[4] = iv, 10 mg/kg single bolus IV, Mean ± SD
[5] = iv, 10 mg/kg single bolus IV, Rat 101
[6] = iv, 10 mg/kg single bolus IV, Rat 102
[7] = iv, 10 mg/kg single bolus IV, Rat 103
[8] = Pseudomonas aeruginosa, PSA isolates

## CN[C@@H]1[C@@H](O)[C@@H](O[C@@H]2[C@@H](O)[C@H](O[C@H]3OC(CNCCO)=CC[C@H]3N)[C@@H](N)C[C@H]2NC(=O)[C@@H](O)CCN)OC[C@]1(C)O [Compound 1, 6′-(2-Hydroxy-ethyl)-1-(4-amino-2(S)-hydroxy-butyryl)-sisomicin]
[1]
  urine concentration immediately following administration: at least 1 mg/ml
  urine concentration maintained for 12 hours: over 0.1 mg/ml
[1]; after third multi-dose
  administered Compound 1 excreted within 24 hours (upper estimate): about 90%
  average fraction excreted in urine in an unchanged form over 24 hours: 75%
[2]; dog, in vivo
  NOAEL at 14 days: 3 mg/kg
[2]; from dog NOAEL, SACF 1.8
  HED: 1.7 mg/kg
[2]; nonclinical GLP safety studies in dogs
  new toxicities: no new toxicities apart from those already known to the class
[2]; nonclinical GLP studies in dogs
  cardiac or respiratory safety signals: no cardiac or respiratory safety signals
Hearing function; guinea pigs, 8 mg/kg dose group
  animals with elevation of ABR thresholds (mild, 4 and 10 kHz, conductive): one male and one female
Hearing function; guinea pigs, 8, 30, 80 mg/kg for 14 days, 4, 10, 20 kHz
  ABR pre- to post-dosing hearing threshold shift: no significant pre- to post-dosing hearing threshold shift at any frequency; also recorded: did not have an adverse effect
Hearing function; guinea pigs, 14 days, up to 80 mg/kg/day
  functional hearing loss (ABR): no functional hearing loss; also recorded: None of the animals treated with Compound 1 at any dose showed any functional hearing loss
Hearing function; guinea pigs, SC 8, 30, 80 mg/kg for 14 days
  mortality and general observations: did not produce mortality and was without effect on clinical observations, body weights, physical examinations, ABR evaluations, macroscopic findings, middle ear assessments, or ossicle mobility
[3]
  tissue distribution: distributed to rat kidneys
[3]; intravenous, read-out: t½ (renal clearance) (converted)
  half-life: ~60 min
[3]; [4]
  AUC(0-inf): 15700 ng·h/mL
  C0: 37500 ng/mL
  clearance: 10.8 mL/min/kg
[3]; iv, 10 mg/kg single bolus IV, Mean ± SD, read-out: MRT0-∞
  MRT inf: 42 min
[3]; iv, 10 mg/kg single bolus IV, Mean ± SD, read-out: Vss
  Vd: 0.437 L/kg
[3]; iv, 10 mg/kg single bolus IV, Mean ± SD, read-out: t1/2 (converted)
  half-life: 56.4 min
[3]; [5]
  AUC(0-inf): 13800 ng·h/mL
  C0: 41700 ng/mL
  clearance: 12.1 mL/min/kg
[3]; iv, 10 mg/kg single bolus IV, Rat 101, read-out: MRT0-∞
  MRT inf: 36 min
[3]; iv, 10 mg/kg single bolus IV, Rat 101, read-out: Vss
  Vd: 0.403 L/kg
[3]; iv, 10 mg/kg single bolus IV, Rat 101, read-out: t1/2 (converted)
  half-life: 57 min
[3]; [6]
  AUC(0-inf): 18500 ng·h/mL
  C0: 42200 ng/mL
  clearance: 9.02 mL/min/kg
[3]; iv, 10 mg/kg single bolus IV, Rat 102, read-out: MRT0-∞
  MRT inf: 48 min
[3]; iv, 10 mg/kg single bolus IV, Rat 102, read-out: Vss
  Vd: 0.434 L/kg
[3]; iv, 10 mg/kg single bolus IV, Rat 102, read-out: t1/2 (converted)
  half-life: 55.8 min
[3]; [7]
  AUC(0-inf): 14800 ng·h/mL
  C0: 28800 ng/mL
  clearance: 11.3 mL/min/kg
[3]; iv, 10 mg/kg single bolus IV, Rat 103, read-out: MRT0-∞
  MRT inf: 42 min
[3]; iv, 10 mg/kg single bolus IV, Rat 103, read-out: Vss
  Vd: 0.473 L/kg
[3]; iv, 10 mg/kg single bolus IV, Rat 103, read-out: t1/2 (converted)
  half-life: 55.8 min
[3]; intravenous dosing
  Cmax and exposure (AUC) dose linearity: dose linear to 75 mg/kg
P. aeruginosa (PSA); PSA (30)
  Cumulative % inhibited at Cmpd. MIC 1: 3.3%
  Cumulative % inhibited at Cmpd. MIC 2: 3.3%
  Cumulative % inhibited at Cmpd. MIC 4: 30.0%
  Cumulative % inhibited at Cmpd. MIC 8: 50.0%
  Cumulative % inhibited at Cmpd. MIC 16: 76.7%
  Cumulative % inhibited at Cmpd. MIC 32: 96.7%
  Cumulative % inhibited at Cmpd. MIC 64: 96.7%
  Cumulative % inhibited at Cmpd. MIC >64: 100.0%
  Cumulative % inhibited at Cmpd. MIC ≦0.5: 0.0%
P. aeruginosa (PSA); PSA, CARB-R (20)
  Cumulative % inhibited at Cmpd. MIC 1: 0.0%
  Cumulative % inhibited at Cmpd. MIC 2: 0.0%
  Cumulative % inhibited at Cmpd. MIC 4: 10.0%
  Cumulative % inhibited at Cmpd. MIC 8: 25.0%
  Cumulative % inhibited at Cmpd. MIC 16: 65.0%
  Cumulative % inhibited at Cmpd. MIC 32: 95.0%
  Cumulative % inhibited at Cmpd. MIC 64: 95.0%
  Cumulative % inhibited at Cmpd. MIC >64: 100.0%
  Cumulative % inhibited at Cmpd. MIC ≦0.5: 0.0%
P. aeruginosa (PSA); PSA, WT (10)
  Cumulative % inhibited at Cmpd. MIC 1: 10.0%
  Cumulative % inhibited at Cmpd. MIC 2: 10.0%
  Cumulative % inhibited at Cmpd. MIC 4: 70.0%
  Cumulative % inhibited at Cmpd. MIC 8: 100.0%
  Cumulative % inhibited at Cmpd. MIC ≦0.5: 0.0%
P. aeruginosa (PSA); [8]
  MIC50: 8 µg/mL (≈ 13.5 µM)
  MIC90: 32 µg/mL (≈ 54 µM)
